# Measured values reported in patent US20240122179A1, “AUXINIC HERBICIDES AND METHODS OF USE THEREOF” (CORTEVA AGRISCIENCE LLC, priority 2021, published 2024).
# Like-named read-outs stand apart in the source and are kept apart here.
# Legend:
# [1] = tested on: Kochia scoparia (KCHSC); test: Postemergence herbicide evaluation, percent reduction in plant size vs untreated control, 21 days after treatment; format: in vivo; conditions: KCHSC, postemergence; for pest or weed control at 140 g/ha / pest or weed control at 280 g/ha: Bassia scoparia, post-emergence, 504 h, read-out: Control/Injury; for pest or weed control at 280 g/ha: rate 280 g ae/ha
# How it was run: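 Values are percent reduction in plant size against an untreated control, measured 21 days after a single postemergence spray at 140 or 280 g ae/ha (187 L/ha, 276 kPa). Treatments used 3-4 randomized complete-block replicates on 2 to 8 leaf-stage plants kept in a 25-28 °C greenhouse, with compounds in acetone/DMSO-based solvent containing crop oil and surfactant.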
# [2] = tested on: Amaranthus palmeri (AMAPA); test: as above; format: in vivo, Amaranthus palmeri (Palmer amaranth); conditions: post-emergence, 504 h, postemergence, read-out: Control/Injury; for pest or weed control at 140 g/ha: rate 140 g ae/ha; for pest or weed control at 280 g/ha: rate 280 g ae/ha
# How it was run: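 Percent reduction in plant size relative to untreated plants, measured 21 days after track-sprayer application (187 L/ha) of 140 or 280 g ae/ha to Amaranthus palmeri at the 2 to 8 leaf stage. Randomized complete block, 3 or 4 replicates, greenhouse at 25 to 28° C; spray solution acetone/DMSO with isopropanol, water and crop oil concentrate.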
# [3] = tested on: Ambrosia artemisiifolia (AMBEL); test: as above; format: in vivo, Ambrosia artemisiifolia (common ragweed); conditions: post-emergence, 504 h, AMBEL, postemergence, read-out: Control/Injury; for pest or weed control at 140 g/ha: rate 140 g ae/ha; for pest or weed control at 280 g/ha: rate 280 g ae/ha
# How it was run: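 Test compounds at 140 or 280 g ae/ha were applied by track sprayer (187 L/ha, spray solution containing acetone/DMSO, isopropanol, crop oil, surfactant) to 2–8 leaf plants, 3–4 replicates. Plants were kept in a greenhouse at 25–28 °C. Size reduction was scored against untreated controls at 21 days.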
# [4] = Volatility of compounds measured by thermogravimetric analysis (TGA), rate of weight loss; format: physicochemical; conditions: estimates of volatility
# Description: Briefly, the rate of weight loss measured in units of […]g/min can be used to determine vapor pressure as shown by the simplified equation: wherein, k is the intrinsic volatility and A is the surface area, Referring now to FIG. 2. A graph of weight loss as function of time for solid samples produces a linear curve; the slope of the curve is the rate of weight loss. When this method is used to measure the volatility of aqueous salt concentrates or liquid concentrates, the water or acetone present in the sample volatilizes before the sample of interest. The first linear loss region of the curve is the loss of water or acetone and the second linear region is characteristic of the sample of interest. In order to illustrate the difference in volatility between some of the compounds disclosed herein and the widely used herbicide dicamba, data from both the compounds and dicamba are presented Table 3 and in FIG. 1.
# [5] = tested on: Amaranthus rudis (AMATA); test: Postemergence herbicide evaluation, percent reduction in plant size vs untreated control, 21 days after treatment; format: in vivo, Amaranthus rudis (tall water hemp); conditions: Amaranthus tuberculatus, post-emergence, 504 h, AMATA, postemergence, read-out: Control/Injury; for pest or weed control at 140 g/ha: rate 140 g ae/ha; for pest or weed control at 280 g/ha: rate 280 g ae/ha
# How it was run: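 Growth-reduction values are percent decrease in plant size relative to untreated plants, scored 21 days post-application. Amaranthus rudis (2-8 leaves) received postemergence sprays at 140 or 280 g ae/ha, 187 L/ha, in a mixed acetone/DMSO/water/isopropanol carrier with crop oil concentrate. Greenhouse conditions were 25-28° C, 50-60% RH; 3-4 randomized replicates.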
# [6] = tested on: Conyza canadensis (L.) (ERICA); test: as above; format: in vivo, Conyza canadensis (L.) (Horseweed); conditions: Erigeron canadensis, post-emergence, 504 h, ERICA, postemergence, read-out: Control/Injury; for pest or weed control at 140 g/ha: rate 140 g ae/ha; for pest or weed control at 280 g/ha: rate 280 g ae/ha
# How it was run: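 Track-sprayer applications (187 L/ha, 276 kPa) of 140 or 280 g ae/ha, technical material dissolved in acetone/DMSO then diluted with crop oil and surfactant-containing solvent, to greenhouse Conyza canadensis at 2-8 leaves. After 21 days, size reduction relative to untreated plants was recorded; 3-4 randomized replicates.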
# [7] = tested on: Glycine max; test: whole plant or invertebrate; conditions: Glycine max, post-emergence, 504 h, read-out: Control/Injury
# How it was run: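 Greenhouse soybean (25–28 °C, 16 h light) sprayed post-emergence at 2–8 leaf stage with 140 or 280 g ae/ha in acetone/DMSO-based spray solution with crop oil concentrate, 187 L/ha by track sprayer; 3–4 replicates, randomized blocks. Plant size reduction versus untreated control measured 21 days after treatment.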
# [8] = R-AMAPA, percent reduction vs untreated control, 21 days after treatment
# [9] = percent reduction vs untreated control, 21 days after treatment
# [10] = rate 140 g ae/ha, percent reduction vs untreated, 21 days after treatment
# [11] = percent reduction vs untreated, 21 days after treatment
SMILES,Volatility [4] [ng/min],pest or weed control at 140 g/ha ([1]; rate 140 g ae/ha) [%],pest or weed control at 280 g/ha [1] [%],"pest or weed control at 140 g/ha [2, 8] [%]","pest or weed control at 280 g/ha [2, 8] [%]",pest or weed control at 140 g/ha [3] [%],pest or weed control at 280 g/ha [3] [%],pest or weed control at 140 g/ha [5] [%],pest or weed control at 280 g/ha [5] [%],"pest or weed control at 140 g/ha [1, 10] [%]","pest or weed control at 280 g/ha [1, 11] [%]",pest or weed control at 140 g/ha ([2]; AMAPA) [%],pest or weed control at 280 g/ha ([2]; AMAPA) [%],"pest or weed control at 140 g/ha [6, 11] [%]","pest or weed control at 280 g/ha [6, 11] [%]",other results
COc1c(Cl)ccc(Cl)c1C(=O)O/N=C(\N)C(C)C [Compound A-48],0.38,90,100,90,99,85,100,60,90,–,–,–,–,–,–,–
COc1c(Cl)ccc(Cl)c1C(=O)O/N=C(\N)c1ccccc1 [Compound A-49],0.08,82,100,95,100,98,99,–,–,–,–,–,–,–,–,"pest or weed control at 140 g/ha [6, 9]: 95%; pest or weed control at 280 g/ha [6, 9]: 98%"
COc1c(Cl)ccc(Cl)c1C(=O)O/N=C(\N)c1cccnc1 [Compound A-50],0.09,99,99,95,99,90,100,95,97,–,–,–,–,–,–,–
COc1c(Cl)ccc(Cl)c1C(=O)OCOC(=O)c1ccccc1 [Compound A-51],0.25,92,99,95,95,90,95,–,–,–,–,–,–,–,–,–
COc1c(Cl)ccc(Cl)c1C(=O)OCOC(=O)c1c(Cl)ccc(Cl)c1OC [Compound A-53],0.19,85,90,70,98,60,70,–,–,–,–,–,–,–,–,Control/Injury ([1]; rate 140 g ae/ha): 85
COc1c(Cl)ccc(Cl)c1C(=O)O/N=C(\SC)c1ccccc1 [Compound A-85],0.28,–,–,68,72,67,78,57,73,–,–,–,–,–,–,"pest or weed control at 140 g/ha [6, 9]: 37%; pest or weed control at 280 g/ha [6, 9]: 68%; pest or weed control at 140 g/ha ([1]; rate 140 g ae/ha, percent reduction vs untreated control, 21 days after treatment): 95%; pest or weed control at 280 g/ha [1, 9]: 97%; plant injury at 140 g/ha [7]: 5%; plant injury at 280 g/ha [7]: 7%"
COc1c(Cl)ccc(Cl)c1C(=O)NOCc1ccccc1 [Compound A-98],0.08,–,–,–,–,20,15,18,13,8,0,23,20,–,–,pest or weed control at 140 g/ha [6]: 2%; pest or weed control at 280 g/ha [6]: 3%
COc1c(Cl)ccc(Cl)c1C(=O)Oc1cc2ccccc2n1C [Compound A-117],0.04,–,–,–,–,90,97,85,85,80,98,83,89,98,95,–

# Further lines, with some results ahead:
Volatility [4] [ng/min],SMILES,pest or weed control at 140 g/ha ([1]; rate 140 g ae/ha) [%],pest or weed control at 280 g/ha [1] [%],"pest or weed control at 140 g/ha [2, 8] [%]","pest or weed control at 280 g/ha [2, 8] [%]",pest or weed control at 140 g/ha [3] [%],pest or weed control at 280 g/ha [3] [%],pest or weed control at 140 g/ha [5] [%],pest or weed control at 280 g/ha [5] [%],"pest or weed control at 140 g/ha [1, 10] [%]","pest or weed control at 280 g/ha [1, 11] [%]",pest or weed control at 140 g/ha ([2]; AMAPA) [%],pest or weed control at 280 g/ha ([2]; AMAPA) [%],"pest or weed control at 140 g/ha [6, 11] [%]","pest or weed control at 280 g/ha [6, 11] [%]",other results
13.4,COc1c(Cl)ccc(Cl)c1C(=O)N(C)OC [Compound A-129],–,–,–,–,10,15,20,23,0,5,8,20,–,–,pest or weed control at 140 g/ha [6]: 38%; pest or weed control at 280 g/ha [6]: 0%
0.01,COc1c(Cl)ccc(Cl)c1C(=O)Nc1ccnn1C [Compound A-134],–,–,–,–,33,30,15,8,0,0,15,15,–,10,pest or weed control at 140 g/ha [6]: 5%
0.086,COc1c(Cl)ccc(Cl)c1C(=O)O/N=C(/C)N [Compound A-136],–,–,–,–,87,96,68,74,76,94,85,90,94,99,–
3.42,CCCC[C@H](CC)COC(=O)c1c(Cl)ccc(Cl)c1OC [Compound A-137],–,–,–,–,33,36,1,8,6,3,15,15,0,0,–
0.008,COc1c(Cl)ccc(Cl)c1C(=O)O/N=C(\N)c1ccc2ccccc2c1 [Compound A-138],–,–,–,–,79,76,65,64,91,91,73,59,75,70,–
